Assay results reported in ChEMBL document CHEMBL1153489, “Benzothiophene inhibitors of MK2. Part 1: structure-activity relationships, assessments of selectivity and cellular potency” (Bioorg Med Chem Lett, 2009).
Calls of active or inactive are those of the source. The calls are words filed in the database; no cut-off is given here.

Assays:
[1] = molecular target: T1, MAP kinase-activated protein kinase 2 (Homo sapiens, UniProt P49137); experiment: Inhibition of MK2
[2] = molecular target: T1, MAP kinase-activated protein kinase 2; experiment: Inhibition of MK2 in human U937 cells assessed as blockade of LPS-stimulated TNFalpha production; type: cell-based, U-937
[3] = molecular target: MAP kinase p38 (Homo sapiens) (UniProt O15264+Q15759+Q16539+P53778); experiment: Inhibition of p38 phosphorylation in LPS-stimulated human U937 cells; type: cell-based; conditions: U-937
[4] = molecular target: Mitogen-activated protein kinase 9 (Homo sapiens) (UniProt P45984); experiment: Inhibition of JNK2 phosphorylation in LPS-stimulated human U937 cells; type: cell-based; conditions: U-937
Mitogen-activated protein kinase 9 (Homo sapiens), sequence (P45984 whole entry, looked up): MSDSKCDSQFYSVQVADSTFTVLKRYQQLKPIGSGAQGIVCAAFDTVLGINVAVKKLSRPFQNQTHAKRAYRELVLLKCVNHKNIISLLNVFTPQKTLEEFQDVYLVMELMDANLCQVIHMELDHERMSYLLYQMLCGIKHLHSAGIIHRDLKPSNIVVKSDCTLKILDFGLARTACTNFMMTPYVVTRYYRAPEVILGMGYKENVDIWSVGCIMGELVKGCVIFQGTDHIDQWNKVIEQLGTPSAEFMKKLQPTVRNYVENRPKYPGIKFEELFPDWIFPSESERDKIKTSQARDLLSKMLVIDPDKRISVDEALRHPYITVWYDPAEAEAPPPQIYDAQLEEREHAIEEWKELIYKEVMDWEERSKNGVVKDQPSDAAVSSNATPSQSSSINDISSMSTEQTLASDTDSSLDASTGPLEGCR

T1 sequence (P49137 whole entry): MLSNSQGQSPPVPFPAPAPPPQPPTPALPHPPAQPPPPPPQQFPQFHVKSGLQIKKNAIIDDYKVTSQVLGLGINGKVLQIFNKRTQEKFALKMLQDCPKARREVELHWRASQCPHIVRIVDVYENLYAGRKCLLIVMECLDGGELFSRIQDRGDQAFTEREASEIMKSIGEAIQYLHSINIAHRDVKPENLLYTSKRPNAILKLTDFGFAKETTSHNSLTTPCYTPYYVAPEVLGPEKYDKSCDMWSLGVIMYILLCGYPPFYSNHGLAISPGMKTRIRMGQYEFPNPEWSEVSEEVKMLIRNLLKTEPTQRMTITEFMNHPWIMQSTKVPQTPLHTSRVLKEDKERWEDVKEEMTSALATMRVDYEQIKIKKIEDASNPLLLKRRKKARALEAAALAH

Compound | IC50 [1] [nM] | IC50 [2] [nM] | Activity [3] | Activity [4]
COC(=O)COc1ccc2sc3c(c2c1)NC[C@@H](C)NC3=O | 3440 | 78000 |  | 
COc1ccc2sc3c(c2c1)NC[C@@H](CN1CCOCC1)NC3=O | > 20000 |  |  | 
COc1ccc2sc3c(c2c1)NC[C@@H](CN)NC3=O | 5 | 2600 |  | 
COc1cccc(COc2ccc3sc4c(c3c2)NC[C@@H](C)NC4=O)c1 | 110 | 4600 |  | 
CCCNC[C@@H]1CNc2c(sc3ccc(OC)cc23)C(=O)N1 | 450 | 14900 |  | 
COc1ccc2sc3c(c2c1)SCCNC3=O | 1090 | 5500 |  | 
COc1ccc2sc3c(c2c1)NC[C@@H](CO)NC3=O | 14 | 400 | inactive | inactive
COc1ccc2sc3c(c2c1)CCCNC3=O | 500 | 4700 |  | 
C[C@@H]1CNc2c(sc3ccc(O)cc23)C(=O)N1 | 190 | 3500 |  | 

More lines, main results first:

IC50 [1] [nM] | IC50 [2] [nM] | Compound | Activity [3] | Activity [4]
1320 | 27000 | C[C@@H]1CNc2c(sc3ccc(OCC4CC4)cc23)C(=O)N1 |  | 
570 | 21600 | CCNC[C@@H]1CNc2c(sc3ccc(OC)cc23)C(=O)N1 |  | 
30 | 1800 | CC(C)COc1ccc2sc3c(c2c1)NC[C@@H](C)NC3=O |  | 
270 | 3100 | COCCOc1ccc2sc3c(c2c1)NC[C@@H](C)NC3=O |  | 
1910 | 24000 | COc1ccc2sc3c(c2c1)NC[C@@H](CN(C)Cc1ccccc1)NC3=O |  | 
570 | 21000 | COc1ccc2sc3c(c2c1)NC[C@@H](CNCc1ccccc1)NC3=O |  | 
180 | 1400 | COc1ccc2sc3c(c2c1)NCCNC3=O |  | 
> 20000 |  | COc1ccc2sc3c(c2c1)NC[C@@H](CN1CCCC1)NC3=O |  | 
1520 | 5450 | CCC[C@@H]1CNc2c(sc3ccc(OC)cc23)C(=O)N1 |  | 
